Target: T1, Neutrophil elastase (Homo sapiens, UniProt P08246)
T1 sequence (P08246 whole entry): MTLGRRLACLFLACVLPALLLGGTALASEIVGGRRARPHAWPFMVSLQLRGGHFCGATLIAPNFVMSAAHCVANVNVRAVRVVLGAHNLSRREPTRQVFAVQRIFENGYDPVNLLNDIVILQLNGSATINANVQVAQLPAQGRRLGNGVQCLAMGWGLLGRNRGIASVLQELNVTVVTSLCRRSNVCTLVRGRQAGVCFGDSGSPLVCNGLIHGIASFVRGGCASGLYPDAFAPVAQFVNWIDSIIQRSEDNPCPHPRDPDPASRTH
Test: Inhibition of human neutrophil elastase using chromogenic substrate (N-MeOSuc-Ala-Ala-Pro-Val-p-nitroanilide after 120 mins

Row | IC50 [µM] | Compound
1 | > 500 | Cc1oc(=O)n(Cc2ccccc2)c1O
2 | > 500 | COc1ccc(C(=O)n2c(O)c(C)oc2=O)cc1

Source: BindingDB's records for doi:10.1016/j.bmcl.2012.04.093 (University of Lisbon, 2012)
